# Tests used:
# human purified monocytes = assay: Stimulated IL-6 release from human purified monocytes (ELISA); type: cell-based; conditions: 24 h, LMW-DS 60-600 µg/ml, heparin 2.0-20 µg/ml, dexamethasone 3.0 µM
# Procedure: Peripheral blood mononuclear cells (PBMC) were isolated from healthy donors through Ficoll-Paque PLUS (GE Healthcare; 11778538) density centrifugation. Monocytes were purified using the EasySep™ human monocyte enrichment kit (StemCell) that purifies monocytes ‘untouched’ to maintain their phenotype.
# Monocytes were cultured in the absence (unstimulated PBS vehicle controls) or presence of stimulation (LPS or peptidoglycan) in the absence (vehicle) or presence of LMW-DS (Tikomed AB, Viken, Sweden, WO 2016/076780; three concentrations; top concentration 600 µg/ml, 200 µg/ml and 60 µg/ml), heparin (2.0, 6.0 or 20 µg/ml; equivalent to 0.406, 1.218 and 4.06 units/ml; Sigma Aldrich) or dexamethasone (3.0 µM; Sigma Aldrich) for 24 hours at 37° C., 5% CO2. Following centrifugation, cell culture supernatants were removed and stored at -20° C. awaiting analysis for IL-6 by ELISA. Levels of IL-6 were quantified in the supernatant by ELISA (R&D systems) according to manufacturer’s instructions.
# Mouse cortical neurons = assay: Gene expression array and pathway analysis, cortical neurons, LMW-DS 0.01 mg/ml 48 h; type: cell-based; conditions: for number of genes: abolished nutrient effect / number of genes: new effect induced by LMW-DS / number of genes: total / number of genes: enhanced response to nutrients / number of genes: not different from control: cortical neurons
# Procedure: For each cell line, n=8 × 25 cm^2 culture flasks were set up. Two flasks were harvested for each cell type on the day of treatment (24 hours after seeding). This represents the Day0 time point. From the remaining flasks, three flasks were treated with Control Medium and three were treated with Culture Medium (CM) containing LMW-DS to give a final concentration of 0.01 mg/ml. Cells from the treated flasks were collected after 48 hours. Therefore the collected data represent (a) untreated cells (Day0 Controls and Day2 Controls) and (b) cells treated with LMW-DS (ILB®, Tikomed AB, Viken, Sweden, WO 2016/076780) for 48 hours (Day2 LMW-DS treated).
# Medium was prepared by adding 10 ml B-27 Serum-Free Supplement and 2.5 ml GlutaMAX™-1 Supplement to 500 ml of Neurobasal medium. The medium was pre-warmed to 37° C. Cells from 12 vials were thawed sequentially in a 37° C. water bath for no longer than 2 min and gently transferred into a 15 ml tube. 9 ml of medium was gently added drop-wise to each. The cell suspension was mixed by inverting the tubes carefully twice.
# The cells were centrifuged for 5 minutes at 200 x g. Supernatant was removed (to the last 0.5 ml) and cells were gently re-suspended by trituration. The cells from the 12 vials were mixed and distributed equally into the previously coated 25 cm^2 flasks (n=8). Cells were incubated at 37° C. with 5% CO2 for 24 hours.
# LMW-DS was provided at a stock concentration of 20 mg/ml and was kept in a temperature monitored refrigerator at 4° C. A fresh 100x LMW-DS stock (1.0 mg/ml) was prepared in sterile DMEM-F12. The concentrated drug stock was sterile filtered and added to the respective culture media (19.6 ml CM and 0.4 ml LMW-DS stock solution). The Control was made using 19.6 ml CM and 0.4 ml of DMEM-F12. LMW-DS and CM were added to the respective flasks (5 ml each) to reach the 0.01 mg/ml concentration of LMW-DS in each dish with a total of 10 ml CM each.
# CM was aspirated into a clean and labelled 15 ml Falcon tube. The flasks (without culture medium) were placed into the -80° C. freezer for 30 minutes. The CM in the Falcon tubes was spun at 3000 x g for 5 minutes. Supernatant was removed and the small pellet was re-suspended in 2.5 ml Trizol:Water (4:1) solution at room temperature (RT, ~22° C.).
# Two aliquots of 1 ml lysate were removed from each sample and 200 µl of chloroform was added to each (0.2 ml of chloroform per 1 ml of TRIzol Reagent used during the cell lysis step) and the tube was shaken vigorously. Samples were stored at RT for 2-3 minutes and subsequently centrifuged at 12,000 x g for 15 minutes at 4° C.
# The RNA was precipitated from the aqueous phase by adding an equal amount of 100% ethanol. The precipitated RNA was fixed onto a Spin Cartridge, washed twice and dried. The RNA was eluted in 50 µl warm RNase-Free Water. The amount and quality of the purified RNA was measured by Nanodrop. The RNA was stored at -80° C. before transfer to Source Bioscience for Array analysis.
# The expression data were downloaded into separate files for each cell line. The ‘Background corrected’ expression is the data from the “gProcessedSignal” of the arrays that is the result of the background signal extracted from the actual signal of the relevant probe. This is the most often used variable in array analysis. The background corrected signal was log2 transformed for all samples for statistical analysis. To reduce the false discovery rate in the samples, the signals that were below ‘expression level’ were removed. The ‘below expression’ level was set at 5 for the log2 transformed expression values.
# Based on the expression pattern of the Control probes on each array it was decided to carry out Median Centering for all arrays before analysis to reduce the variability of the results. […]
# [1] = pathway analysis of gene expression
substance,measurement,setting,value
sodium salt of dextran sulfate [LMW-DS],LPS-stimulated IL-6 release,human purified monocytes; LPS 0.01 ng/ml,concentration dependent statistically significant inhibition
same,peptidoglycan-stimulated IL-6 release,human purified monocytes; peptidoglycan 30 ng/ml,concentration dependent statistically significant increase
same,number of differentially expressed genes,Mouse cortical neurons; D0 control to D2 LMW-DS treated,609
same,number of differentially expressed genes,Mouse cortical neurons; D0 control to D2 LMW-DS treated (second statement),247
same,number of genes: abolished nutrient effect,Mouse cortical neurons; no effect,572
same,number of genes: new effect induced by LMW-DS,Mouse cortical neurons; no effect,19
same,number of genes: total,Mouse cortical neurons; no effect,591
same,number of genes: abolished nutrient effect,Mouse cortical neurons; significant downregulation,7
same,number of genes: enhanced response to nutrients,Mouse cortical neurons; significant downregulation,158
same,number of genes: new effect induced by LMW-DS,Mouse cortical neurons; significant downregulation,22
same,number of genes: not different from control,Mouse cortical neurons; significant downregulation,95
same,number of genes: total,Mouse cortical neurons; significant downregulation,282
same,number of genes: abolished nutrient effect,Mouse cortical neurons; significant upregulation,33
same,number of genes: enhanced response to nutrients,Mouse cortical neurons; significant upregulation,43
same,number of genes: new effect induced by LMW-DS,Mouse cortical neurons; significant upregulation,7
same,number of genes: not different from control,Mouse cortical neurons; significant upregulation,221
same,number of genes: total,Mouse cortical neurons; significant upregulation,304
same,number of genes: abolished nutrient effect,Mouse cortical neurons; total,612
same,number of genes: enhanced response to nutrients,Mouse cortical neurons; total,612
same,number of genes: new effect induced by LMW-DS,Mouse cortical neurons; total,48
same,number of genes: not different from control,Mouse cortical neurons; total,316
same,number of genes: total,Mouse cortical neurons; total,1177
same,"deleterious effects of oxidative stress (amyloid-β and Lewy body pathology, mitochondrial dysfunction)",Mouse cortical neurons; [1],prevent and reverse
same,glutamate production,Mouse cortical neurons; [1],did not alter
